{"source": "patent US20080065002A1", "about": "“Catheter for Localized Drug Delivery and/or Electrical Stimulation” (NEUROSYSTEC CORPORATION, priority 2006, published 2008)", "test": "Expected decomposition of gacyclidine in solution", "assay_type": "physicochemical", "conditions": "72 hours at 37° C.", "description": "The compatibility of gacyclidine in Ringer's Lactate (pH 6.0) in PTFE tubing at room temperature and at 37° C. was evaluated. Three sets of six segments each of PTFE tubing were used. Six samples were collected at each of three time intervals (6 hr, 23 hr and 72 hr). For each set of samples collected, three were incubated at ambient temperature and three were incubated at 37° C. A 16.5 ft. long segment of PTFE tubing (0.010″ ID, 0.018″ OD) was filled with 100 μM gacyclidine in Ringer's Lactate solution (pH 6.0) by use of a glass syringe. The two ends of the tubing were sealed with a paraffin wax vapor barrier. After incubating at room temperature or 37° C. for a specified time, the solution was pumped directly into a glass HPLC autosampler vial insert using an air-filled syringe. The PTFE tubing drug loss in 72 hours at room temperature was 1.3% and at 37° C. was 7.9%. […] The expected amount of decomposition expected in 72 hours at 37° C. is 8.0%."}
{"smiles": "CC1CCCCC1(c1cccs1)N1CCCCC1", "note": "(stereo not shown) [gacyclidine]", "values": [{"measurement": "expected amount of decomposition", "result": 8.0, "unit": "%"}]}
